In patent publication US20120146009A1, “NOVEL COMPOUND, FIELD-EFFECTIVE TRANSISTOR, SOLAR CELL, METHOD FOR PRODUCING SAID COMPOUND, FIELD-EFFECTIVE TRANSISTOR, AND SOLAR CELL, COMPOSITION FOR ORGANIC SEMICONDUCTOR LAYER, AND COMPOSITION FOR P-TYPE SEMICONDUCTOR LAYER” (Sharp Kabushiki Kaisha, priority 2009, published 2012):
Where two headings read alike, the source gives them in different places.

Key:
[1] = Stability against aerial oxidation (absorption intensity of solution in air-saturated methylene chloride, dark place); format: physicochemical; details: immediately after preparation to 1 week
Description: Next, stability of Compound 1 against aerial oxidation was evaluated. A solution of Compound 1 was prepared with the use of air-saturated methylene chloride as a solvent, and was left in a dark place. The absorption spectrum was measured during a time period from immediately after the preparation to 1 week after the preparation, so as to trace how an absorption intensity of the solution of Compound 1 was changed during the above time period (see Reference Document 1 described above).

[2] = Absorption spectrum in CH2Cl2; format: physicochemical
Description: (§1) An absorption spectrum (absorption peak wavelength λmax, molar absorbance coefficient c) of Compound 1 thus synthesized was measured. Further, a HOMO level (ionization potential) of Compound 1 was measured by photoelectric spectroscopy in the atmosphere (SC-2).
(§2) Note that, for the result of pentacene shown in Table 2, the absorption spectrum described in Reference Document 1 (J. Am. Chem. Soc. 2007, 129, 2225) was used, and the HOMO level described in Reference Document 2 (Jpn. J. Appl. Phys. 2005, 44, 561) was used.

[3] = Solubility in solvent; format: physicochemical
[4] = Properties of the isolated crystal in the atmosphere; format: physicochemical; details: yellow crystal
Description: Into an anhydrous DMF (15 ml) solution of Intermediate 1 (0.42 g, 1.5 mmol), sodium hydride (60%, 0.13 g, 3.1 mmol) was added little by little. The resultant solution was left at room temperature for 2 hours. After that, 1-bromohexane (0.5 g, 3 mmol) was added to the solution, and the solution was agitated for further 2 hours. A solvent was removed away under reduced pressure, and a residue was extracted with methylene chloride. The residue from which the solvent was distilled away was recrystallized from hexane so that 0.28 g of Compound 1 was obtained (yield: 41%).

[5] = HOMO level (ionization potential) by photoelectric spectroscopy in the atmosphere; format: physicochemical
Description: as §1, §2

[6] = background statement; cited from earlier work
[7] = from Reference Document 2; cited from earlier work
[8] = same condition, left for 24 hours, Reference Document 1; cited from earlier work
[9] = from Reference Document 1; cited from earlier work

Q: Which “Change in absorption intensity of solution” value [1] does the source give for CCCCCCN1c2cc3ccccc3cc2N(CCCCCC)c2cc3ccccc3cc21 [Compound 1] here?
A: Its value is “no change in absorption intensity”.

Q: What about the “Absorption spectrum λ max” value ([2]; in CH2CL2) of the same compound?
A: The value was 422 nm.

Q: And the “Absorption spectrum log ε” value ([2]; in CH2CL2, at λ max)?
A: The value was “(log ε = 4.58)”.

Q: And the “Resolvability with respect to a solvent” value [3]?
A: Its value is “excellent resolvability”.

Q: And the Hydroscopic property [4]?
A: The Hydroscopic property was “no hydroscopic property”.

Q: What about the “Stability in the atmosphere” value [4] of the same compound?
A: The value was “stable compound without any deterioration in the atmosphere”.

Q: What about the “Photoelectric spectroscopy HOMO” value [5] of the same compound?
A: The value was −4.89 eV.

Q: For c1ccc2cc3c(cc2c1)Nc1cc2ccccc2cc1N3 [DHDAP, dihydrodiazapentacene], which Solubility [6] is on record?
A: Its Solubility is “low in solubility”.

Q: What does the source list for c1ccc2cc3cc4cc5ccccc5cc4cc3cc2c1 [Pentacene, pentacene]?
A: Photoelectric spectroscopy HOMO [7]: −5.0 eV; Change in absorption intensity of solution [8]: absorption intensity was substantially eliminated; Absorption spectrum λ max [9]: 575 nm
